As a reminder, the viability, T/C is the result in the treated group divided by that in the control group, in per cent. A word on the IC50: it is the concentration at which inhibition is half-maximal.

Our source for the viability, T/C and IC50 values is PubChem BioAssay AID2060512 (Molecular Pharmacology Branch, DTP, NCI, 2025).

This test deals with 186277-243-T-J2-PDC complex spheroid viability. The experiment in a line: Anticancer human tumor 186277-243-T-J2-PDC patient-derived colon adenocarcinoma cell line growth inhibition [GQUAD]. The settings on record: for viability, T/C: stronger effect = lower value. The source says:
DNA G-quadruplex Stabilizer Agents in Combinations in Complex Spheroids
A high-throughput screen of multi-cell type tumor spheroids was designed to identify active combinations of DNA G-quadruplex stabilizer agents and targeted small molecules. Complex spheroids include a stromal component modeled by human endothelial cells (HUVEC) and fibroblasts modeled by human mesenchymal stem cells (MSCs). The concentration ranges selected for each drug and investigational agent were based upon clinically achievable concentrations if the clinical Cmax of the agent was known.
Compounds. The drugs and investigational agents: pidnarulex (CX-5461; NSC782164), APTO-253 (NSC789042), BRACO-19 (NSC847499), peposertib (NSC802822), ceralasertib (NSC780249), elimusertib (NSC800525), camonsertib (NSC841442), AZD-1390 (NSC803789), olaparib (NSC753686), talazoparib (NSC767125), ART-558 (NSC835418), sotorasib (NSC818433), MRTX-1133 (NSC836407), SN-38 (NSC673596), topotecan (NSC609699), etoposide (NSC141540), doxorubicin (NSC123127), gemcitabine (NSC613327), 5-fluorouracil (NSC19893), paclitaxel (NSC125973), vemurafenib (NSC761431), panobinostat (NSC761190), R-306465 (JNJ-16241199; NSC773264), adavosertib (NSC754352), TP-3654 (NSC805149), carboplatin (NSC241240), KSQ-4279 (NSC840948), and staurosporine (NSC755774) were obtained from the National Cancer Institute (NCI) Developmental Therapeutics Program Chemical Repository (34). The FDA-approved anticancer drug set is available from the NCI Developmental Therapeutics Program. […] The stock solutions were prepared in dimethyl sulfoxide (DMSO, Sigma-Aldrich, St. Louis, MO, cat. D2650) at 800-fold the tested concentration and stored at -70 degrees C prior to their use. All drugs and investigational agents were tested over a range starting from a high concentration at or near the clinical Cmax and decreasing in half-log increments. If the clinical Cmax for an agent had not been determined, the highest concentration tested was 10 microM.
2.3 Cell Culture. All cells were maintained in an incubator at 37 degrees C and 5% CO2 with 95% humidity. The PDC lines were cultured according to standard operating procedures established by the NCI PDMR. All PDCs were thawed and cultured in Matrigel-coated flasks prepared with a working solution of 1X Ham's F-12 nutrient mix, without supplementation (Invitrogen, cat. 11765054), 100 U/mL penicillin-streptomycin (Invitrogen, cat. 15140122), and 2.5% Matrigel (Corning Inc., cat. 354248) for the first three passages. The 857933-349-R-J2-PDC line was cultured in 6C/Colon 1B media, which includes advanced DMEM/F-12 (Thermo Fisher Scientific, cat. 12634028), 10 mM HEPES (Thermo Fisher Scientific, cat. 15630080), 1X GlutaMAX supplement (Thermo Fisher Scientific, cat. 35050061), 0.1 mg/mL primocin (InvivoGen, cat. ant-pm-2), 10% defined fetal bovine serum, heat inactivated (HyClone Laboratories Inc., cat. SH30070.03HI), 50% L-WRN conditioned media (ATCC, cat. CRL-3276), 1.25 mM N-Acetyl-L-cysteine (Sigma-Aldrich, cat. A9165), 10 mM nicotinamide (Sigma-Aldrich, cat. N0636), 1X B-27 supplement (Thermo Fisher Scientific, cat. 17504044), 1X N-2 supplement (Thermo Fisher Scientific, cat. 17502048), 10 microM Y-27632 dihydrochloride (Tocris Bioscience, cat. 1254), and 50 ng/mL human EGF recombinant protein (Thermo Fisher Scientific, cat. PHG0311). The 485176-168-R4-J1-PDC line was cultured in Panc media, which includes all 6C/Colon 1B media components plus 100 ng/mL human FGF-10 (Thermo Fisher Scientific, cat. 100-26), 500 nM SB-431542 (Selleckchem, cat. S1067), and gastrin (Tocris, cat. 3006).
[…]

Several values for one entry are separate records, joined by “and”; a condition that tells them apart may be missing. Equal values may be shown once.
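Also: spheroids exposed to drugs for 7 days.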

Take `C#Cc1c(F)ccc2cc(O)cc(-c3ncc4c(N5CC6CCC(C5)N6)nc(OCC56CCCN5CC(F)C6)nc4c3F)c12` (stereo unspecified): the viability, T/C was 99.9% and 94.8% and 64% (compound 0.0316 µM); 59.1% and 30.1% and 46.2% (compound 0.1 µM); 26% and 13.2% and 19.2% (compound 0.316 µM); 14.4% and 7.76% and 10.2% (compound 1 µM); 17.8% and 7.17% and 7.07% (compound 3.16 µM); 10.2% and 5.44% and 5.48% (compound 10 µM). The IC50 (curve of compound) is 137 nM and 70.6 nM and 77.1 nM.
Consider `C=CC(=O)N1CCN(c2nc(=O)n(-c3c(C)ccnc3C(C)C)c3nc(-c4c(O)cccc4F)c(F)cc23)C(C)C1` (stereo unspecified), for which the viability, T/C reads like this: (compound 0.0316 µM) 91.3% and 93.7% and 101%; (compound 0.1 µM) 82.3% and 102% and 89.8%; (compound 0.316 µM) 94% and 91.1% and 104%; (compound 1 µM) 108% and 96.1% and 91.2%; (compound 3.16 µM) 92.6% and 117% and 98%; (compound 10 µM) 87.6% and 78.8% and 95.7%. Under “curve of compound”, the IC50 was above 10000 nM.
For `C=CCn1c(=O)c2cnc(Nc3ccc(N4CCN(C)CC4)cc3)nc2n1-c1cccc(C(C)(C)O)n1`, the viability, T/C runs as follows: (compound 0.0316 µM) 117% and 101% and 93.2%; (compound 0.1 µM) 73.4% and 86.2% and 76.1%; (compound 0.316 µM) 13.5% and 16.9% and 22.7%; (compound 1 µM) 9.12% and 11.3% and 11.6%; (compound 3.16 µM) 8.45% and 9.04% and 11%; (compound 10 µM) 10.8% and 11.9% and 14.4%. The IC50 (curve of compound) was 157 nM and 182 nM and 175 nM.
With `CC(=O)O[C@H]1C(=O)[C@@]2(C)[C@H]([C@H](OC(=O)c3ccccc3)[C@]3(O)C[C@H](OC(=O)[C@H](O)[C@@H](NC(=O)c4ccccc4)c4ccccc4)C(C)=C1C3(C)C)[C@]1(OC(C)=O)CO[C@@H]1C[C@@H]2O`, the viability, T/C by setting is: (compound 0.0316 µM) 11.9% and 17.4% and 29%; (compound 0.1 µM) 4.45% and 7.62% and 9.72%; (compound 0.316 µM) 5.05% and 6.94% and 9.26%; (compound 1 µM) 5.03% and 4.51% and 8.19%; (compound 3.16 µM) 4.85% and 4.62% and 5.67%; (compound 10 µM) 4.7% and 4.26% and 6.48%. Besides, the IC50 (curve of compound) was below 31.6 nM.
As to `CC(C)(O)C1CCC(Nc2ccc3ncc(-c4cccc(C(F)(F)F)c4)n3n2)CC1` (stereo unspecified), the viability, T/C (compound 0.0316 µM) was 82.3% and 96.5% and 103%; the viability, T/C (compound 0.1 µM) is 106% and 97.7% and 92.2%; the viability, T/C (compound 0.316 µM) is 101% and 99.8% and 99.6%; the viability, T/C (compound 1 µM) was 83.7% and 85.5% and 105%; the viability, T/C (compound 3.16 µM) was 55.3% and 49% and 56.7%; the viability, T/C (compound 10 µM) is 46.4% and 46% and 50%. The IC50 (curve of compound) was 6250 nM and 3040 nM and > 10000 nM.
For the compound `CCCS(=O)(=O)Nc1ccc(F)c(C(=O)c2c[nH]c3ncc(-c4ccc(Cl)cc4)cc23)c1F`, the viability, T/C is, setting by setting: (compound 0.0316 µM) 111% and 99.7% and 103%; (compound 0.1 µM) 114% and 101% and 82.2%; (compound 0.316 µM) 91.7% and 97.9% and 81.8%; (compound 1 µM) 92.4% and 78.4% and 81.4%; (compound 3.16 µM) 94.7% and 87.6% and 78.3%; (compound 10 µM) 22.4% and 25.9% and 24.6%. In addition, where the note is “curve of compound”, the IC50 was 6350 nM and 6160 nM and 5690 nM.
Take `CN(C)c1ccc(Nc2c3ccc(NC(=O)CCN4CCCC4)cc3nc3cc(NC(=O)CCN4CCCC4)ccc23)cc1`: the viability, T/C (compound 0.1 µM) was 97.8% [middle of 12 runs]; the viability, T/C (compound 0.316 µM) was 101% [middle of 12 runs]; the viability, T/C (compound 1 µM) was 101% [middle of 12 runs]; the viability, T/C (compound 10 µM) was 99.7% [middle of 12 runs]. Further, the IC50 (compound alone, run of 04/22/2024) was above 10000 nM.
For the compound `COc1cc(C2c3cc4c(cc3C(OC3OC5COC(C)OC5C(O)C3O)C3COC(=O)C23)OCO4)cc(OC)c1O` (stereo unspecified), the viability, T/C is, setting by setting: (compound 0.0316 µM) 103% and 110% and 100%; (compound 0.1 µM) 100% and 101% and 85.4%; (compound 0.316 µM) 102% and 83.6% and 82.1%; (compound 1 µM) 72.1% and 50.7% and 50%; (compound 3.16 µM) 52.7% and 37% and 36.2%; (compound 10 µM) 19.4% and 20.9% and 16.9%. In addition, under “curve of compound”, the IC50 was 3130 nM and 1270 nM and 1310 nM.
`COc1cccc2c1C(=O)c1c(O)c3c(c(O)c1C2=O)CC(O)(C(=O)CO)CC3OC1CC(N)C(O)C(C)O1` (stereo unspecified): the viability, T/C by setting is: (compound 0.0316 µM) 108% and 97.9% and 88.6%; (compound 0.1 µM) 117% and 91.2% and 90.2%; (compound 0.316 µM) 83.2% and 57.1% and 66.7%; (compound 1 µM) 29.7% and 15.8% and 22.8%; (compound 3.16 µM) 4.47% and 0.22% and 0.3%; (compound 10 µM) 0.23% and 0.19% and 0.13%. For the same compound, the IC50 (curve of compound) is 649 nM and 388 nM and 494 nM.
Regarding `COc1ncnc(C2CC2)c1-c1ncc2cnn(Cc3ccc(-c4nc(C(F)(F)F)cn4C(C)C)cc3)c2n1`, the viability, T/C (compound 0.0316 µM) was 90% and 113% and 103%; the viability, T/C (compound 0.1 µM) was 95.5% and 108% and 94%; the viability, T/C (compound 0.316 µM) is 90.5% and 94.9% and 102%; the viability, T/C (compound 1 µM) was 88.4% and 101% and 105%; the viability, T/C (compound 3.16 µM) is 96% and 96.8% and 92.5%; the viability, T/C (compound 10 µM) was 76.6% and 96.9% and 106%. For the same compound, the IC50 (curve of compound) was above 10000 nM.
Take `Cc1cccc(N(C)C(=O)C2C(O)CCN2c2nc(C)cc(C(F)(F)F)c2C#N)c1` (stereo unspecified): the viability, T/C (compound 0.0316 µM) is 109% and 93.9% and 95.1%; the viability, T/C (compound 0.1 µM) is 91% and 94.3% and 102%; the viability, T/C (compound 0.316 µM) is 95.7% and 97.1% and 115%; the viability, T/C (compound 1 µM) is 102% and 99.7% and 99.6%; the viability, T/C (compound 3.16 µM) is 116% and 97.7% and 102%; the viability, T/C (compound 10 µM) is 102% and 104% and 91.5%. Moreover, for the setting “curve of compound”, the IC50 is above 10000 nM.
For `Nc1ccn(C2OC(CO)C(O)C2(F)F)c(=O)n1` (stereo unspecified), the viability, T/C is, setting by setting: (compound 0.0316 µM) 17% and 8.09% and 31%; (compound 0.1 µM) 11.1% and 8.48% and 13.3%; (compound 0.316 µM) 11.3% and 9.27% and 10.2%; (compound 1 µM) 11.5% and 8.56% and 11.1%; (compound 3.16 µM) 12.8% and 8.21% and 8.72%; (compound 10 µM) 10.8% and 8.32% and 10.6%. Further, the half-maximal inhibitory concentration (IC50) (curve of compound) was below 31.6 nM.
With `O=C(NO)c1cnc(N2CCN(S(=O)(=O)c3ccc4ccccc4c3)CC2)nc1`, the viability, T/C runs as follows: (compound 0.0316 µM) 108% and 104% and 95.6%; (compound 0.1 µM) 87.7% and 95.5% and 89.9%; (compound 0.316 µM) 7.49% and 8.52% and 11.5%; (compound 1 µM) 0.33% and 0.31% and 0.48%; (compound 3.16 µM) 0.27% and 0.25% and 0.13%; (compound 10 µM) 0.27% and 0.25% and 0.15%. Moreover, the IC50 (curve of compound) was 172 nM and 183 nM and 180 nM.
Regarding `O=c1[nH]cc(F)c(=O)[nH]1`, the viability, T/C by setting is: (compound 0.0316 µM) 94.6% and 93.4% and 110%; (compound 0.1 µM) 94.9% and 95.8% and 93.8%; (compound 0.316 µM) 104% and 108% and 112%; (compound 1 µM) 97.6% and 114% and 107%; (compound 3.16 µM) 62.5% and 75.2% and 60.1%; (compound 10 µM) 39.6% and 52.2% and 50.6%. Also, the IC50 (curve of compound) was 5940 nM and > 10000 nM.
